In the NIST ThermoML archive (doi:10.1016/j.jct.2004.07.024):
± gives the expanded uncertainty stated by the source.

Experiment: xn = mol fraction of the nth substance listed
Conditions: 101.33 kPa, Liquid

CCc1ccccc1 [ethylbenzene] + C[S+](C)[O-]
Conditions | mass density [kg/m3]
293.15 K, x1 = 0.0626 | 1076.31 ± 0.31
293.15 K, x1 = 0.1596 | 1043.57 ± 0.29
293.15 K, x1 = 0.2203 | 1025.03 ± 0.29
293.15 K, x1 = 0.2983 | 1003.06 ± 0.29
293.15 K, x1 = 0.3698 | 984.55 ± 0.31
293.15 K, x1 = 0.4623 | 962.58 ± 0.35
293.15 K, x1 = 0.5186 | 950.18 ± 0.38
293.15 K, x1 = 0.5712 | 939.18 ± 0.4
293.15 K, x1 = 0.6285 | 927.89 ± 0.42
293.15 K, x1 = 0.6802 | 918.18 ± 0.44
293.15 K, x1 = 0.7525 | 905.36 ± 0.47
293.15 K, x1 = 0.8102 | 895.69 ± 0.49
293.15 K, x1 = 0.8723 | 885.81 ± 0.51
293.15 K, x1 = 0.9456 | 874.79 ± 0.53
303.15 K, x1 = 0.0669 | 1065.53 ± 0.29
303.15 K, x1 = 0.1456 | 1038.79 ± 0.28
303.15 K, x1 = 0.2569 | 1005.2 ± 0.28
303.15 K, x1 = 0.3203 | 988 ± 0.3
303.15 K, x1 = 0.3956 | 969 ± 0.33
303.15 K, x1 = 0.4569 | 954.63 ± 0.36
303.15 K, x1 = 0.5132 | 942.23 ± 0.38
303.15 K, x1 = 0.5856 | 927.28 ± 0.41
303.15 K, x1 = 0.6277 | 919.04 ± 0.42
303.15 K, x1 = 0.7065 | 904.51 ± 0.45
303.15 K, x1 = 0.7856 | 890.93 ± 0.48
303.15 K, x1 = 0.8359 | 882.8 ± 0.5
303.15 K, x1 = 0.8856 | 875.1 ± 0.52
303.15 K, x1 = 0.9503 | 865.51 ± 0.54
313.15 K, x1 = 0.0624 | 1056.77 ± 0.28
313.15 K, x1 = 0.1459 | 1028.39 ± 0.27
313.15 K, x1 = 0.2201 | 1005.62 ± 0.27
313.15 K, x1 = 0.2692 | 991.65 ± 0.28
313.15 K, x1 = 0.3314 | 975.03 ± 0.31
313.15 K, x1 = 0.3963 | 958.87 ± 0.34
313.15 K, x1 = 0.4456 | 947.35 ± 0.36
313.15 K, x1 = 0.4965 | 936.07 ± 0.38
313.15 K, x1 = 0.5216 | 930.71 ± 0.39
313.15 K, x1 = 0.5986 | 915.08 ± 0.42
313.15 K, x1 = 0.6853 | 898.86 ± 0.45
313.15 K, x1 = 0.7526 | 887.13 ± 0.48
313.15 K, x1 = 0.8418 | 872.68 ± 0.51
313.15 K, x1 = 0.9258 | 860.05 ± 0.54
323.15 K, x1 = 0.0625 | 1046.39 ± 0.27
323.15 K, x1 = 0.1786 | 1007.95 ± 0.26
323.15 K, x1 = 0.2469 | 987.84 ± 0.28
323.15 K, x1 = 0.3095 | 970.78 ± 0.3
323.15 K, x1 = 0.3698 | 955.5 ± 0.33
323.15 K, x1 = 0.4152 | 944.61 ± 0.35
323.15 K, x1 = 0.4723 | 931.67 ± 0.38
323.15 K, x1 = 0.5362 | 918.08 ± 0.4
323.15 K, x1 = 0.6048 | 904.45 ± 0.43
323.15 K, x1 = 0.6604 | 894.04 ± 0.45
323.15 K, x1 = 0.7301 | 881.76 ± 0.48
323.15 K, x1 = 0.7992 | 870.36 ± 0.5
323.15 K, x1 = 0.8683 | 859.65 ± 0.52
323.15 K, x1 = 0.9226 | 851.65 ± 0.54
333.15 K, x1 = 0.066 | 1034.83 ± 0.25
333.15 K, x1 = 0.1159 | 1017.74 ± 0.25
333.15 K, x1 = 0.1896 | 994.42 ± 0.25
333.15 K, x1 = 0.2156 | 986.74 ± 0.27
333.15 K, x1 = 0.2765 | 969.61 ± 0.3
333.15 K, x1 = 0.3286 | 955.9 ± 0.32
333.15 K, x1 = 0.3964 | 939.26 ± 0.35
333.15 K, x1 = 0.4598 | 924.75 ± 0.38
333.15 K, x1 = 0.5349 | 908.81 ± 0.41
333.15 K, x1 = 0.6126 | 893.53 ± 0.44
333.15 K, x1 = 0.6861 | 880.14 ± 0.47
333.15 K, x1 = 0.7698 | 865.99 ± 0.5
333.15 K, x1 = 0.8459 | 854.04 ± 0.52
333.15 K, x1 = 0.9025 | 845.66 ± 0.54
343.15 K, x1 = 0.0599 | 1026.68 ± 0.24
343.15 K, x1 = 0.1569 | 994.32 ± 0.24
343.15 K, x1 = 0.2363 | 970.71 ± 0.28
343.15 K, x1 = 0.3001 | 953.33 ± 0.31
343.15 K, x1 = 0.3895 | 931.07 ± 0.36
343.15 K, x1 = 0.4519 | 916.81 ± 0.38
343.15 K, x1 = 0.5163 | 903.06 ± 0.41
343.15 K, x1 = 0.5698 | 892.31 ± 0.43
343.15 K, x1 = 0.6389 | 879.27 ± 0.46
343.15 K, x1 = 0.6895 | 870.27 ± 0.47
343.15 K, x1 = 0.7558 | 859.13 ± 0.5
343.15 K, x1 = 0.8106 | 850.44 ± 0.52
343.15 K, x1 = 0.8895 | 838.64 ± 0.54
343.15 K, x1 = 0.9502 | 830.09 ± 0.56
353.15 K, x1 = 0.059 | 1016.69 ± 0.23
353.15 K, x1 = 0.1555 | 984.6 ± 0.25
353.15 K, x1 = 0.2236 | 964.29 ± 0.29
353.15 K, x1 = 0.2856 | 947.23 ± 0.32
353.15 K, x1 = 0.3384 | 933.66 ± 0.34
353.15 K, x1 = 0.4089 | 916.78 ± 0.37
353.15 K, x1 = 0.4625 | 904.82 ± 0.39
353.15 K, x1 = 0.5185 | 893.03 ± 0.42
353.15 K, x1 = 0.5665 | 883.47 ± 0.44
353.15 K, x1 = 0.6255 | 872.34 ± 0.46
353.15 K, x1 = 0.6706 | 864.28 ± 0.48
353.15 K, x1 = 0.7556 | 850 ± 0.51
353.15 K, x1 = 0.8326 | 838.04 ± 0.53
353.15 K, x1 = 0.9129 | 826.41 ± 0.56
